Results as given in patent EP0552657A1, “Use of pure Boswellic acid” (AMMON, Hermann P.T., priority 1992, dated 1993).

Target: T1, 5-Lipoxygenase (Rattus norvegicus, UniProt P12527)
T1 sequence (P12527 1-673): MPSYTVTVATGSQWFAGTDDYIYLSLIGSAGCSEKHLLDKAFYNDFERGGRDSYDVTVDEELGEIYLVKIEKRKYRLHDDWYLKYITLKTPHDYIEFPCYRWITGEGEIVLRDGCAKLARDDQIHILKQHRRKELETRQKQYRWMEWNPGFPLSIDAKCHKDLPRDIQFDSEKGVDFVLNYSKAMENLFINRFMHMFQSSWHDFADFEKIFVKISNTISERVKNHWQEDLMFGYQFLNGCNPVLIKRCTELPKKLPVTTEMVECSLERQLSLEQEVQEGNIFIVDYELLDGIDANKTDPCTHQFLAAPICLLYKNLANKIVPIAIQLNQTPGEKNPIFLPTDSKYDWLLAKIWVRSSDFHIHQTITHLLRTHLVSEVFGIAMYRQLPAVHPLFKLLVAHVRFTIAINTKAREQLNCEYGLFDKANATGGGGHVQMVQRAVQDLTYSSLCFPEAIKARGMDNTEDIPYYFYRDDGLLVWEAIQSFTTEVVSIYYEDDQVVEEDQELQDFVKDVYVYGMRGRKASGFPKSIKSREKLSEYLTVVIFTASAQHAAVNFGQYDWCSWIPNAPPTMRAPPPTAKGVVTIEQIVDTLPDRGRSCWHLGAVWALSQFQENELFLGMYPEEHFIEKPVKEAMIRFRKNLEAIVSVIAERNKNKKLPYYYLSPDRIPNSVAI
Assay: 5-lipoxygenase inhibition by boswellic acids (stimulated neutrophil granulocytes from rat peritoneum)
Format: cell-based, Ratte
Conditions: read-out: IC50-Werte für die 5-LO-Hemmung
Description: Mit Hilfe des Testes mit Calcium- und Ionophor-stimulierten neutrophilen Leukozyten der Ratte konnte nachgewiesen werden, daß Extrakte aus Boswellia serrata vorwiegend die Bildung von Leukotrienen blockieren, dagegen die Prostaglandinsynthese erst in wesentlich höheren Konzentrationen beeinflussen (vgl. zur Methodik: a) Messung der Leukotriene: Safayhi et al., Biochem. Pharmacology, 34:2691-2694, 1985; b) Messung der Prostaglandine: Kommerzielle Radio-Immunoassay-Kits der Firma Amersham für 6-Keto-PGF1α).
Anhand der beigefügten Zeichnungen wird die Erfindung näher erläutert. […] Methode: Safayhi et al., JPET accepted. • Fig. 4 die Elutionsprofile der durch Eisen/Ascorbat-Stimulation aus exogener Arachidonsäure im zellfreien System entstehenden oxidierten und hydroxylierten Produkte in Gegenwart steigender Konzentrationen von Acetyl-boswelliasäure (A) und Nordihydroguaiaretsäure (B). Methode: Safayhi et al., JPET accepted.

SMILES | IC50
C[C@H]1[C@H](C)CC[C@]2(C)CC[C@]3(C)C(=CC(=O)[C@@H]4[C@@]5(C)CC[C@@H](O)[C@](C)(C(=O)O)[C@@H]5CC[C@]43C)[C@H]12 [11-Keto-ß-boswelliasäure] | 5 µM
CC(=O)O[C@@H]1CC[C@@]2(C)[C@@H](CC[C@]3(C)[C@@H]2C(=O)C=C2[C@@H]4[C@@H](C)[C@H](C)CC[C@]4(C)CC[C@]23C)[C@@]1(C)C(=O)O [Acetyl-11-keto-ß-boswelliasäure] | 2 µM
CC(=O)O[C@@H]1CC[C@@]2(C)[C@@H](CC[C@]3(C)[C@@H]2CC=C2[C@@H]4[C@@H](C)[C@H](C)CC[C@]4(C)CC[C@]23C)[C@@]1(C)C(=O)O [Acetyl-boswelliasäure] | 7 µM
CC(=O)O[C@@H]1CC[C@@]2(C)[C@@H](CC[C@]3(C)[C@@H]2CC=C2[C@@H]4CC(C)(C)CC[C@]4(C)CC[C@]23C)[C@@]1(C)C(=O)O [Acetyl-α-boswelliasäure] | 7 µM
C[C@H]1[C@H](C)CC[C@]2(C)CC[C@]3(C)C(=CC[C@@H]4[C@@]5(C)CC[C@@H](O)[C@](C)(C(=O)O)[C@@H]5CC[C@]43C)[C@H]12 [ß-Boswelliasäure] | 5 µM
CC1(C)CC[C@]2(C)CC[C@]3(C)C(=CC[C@@H]4[C@@]5(C)CC[C@@H](O)[C@](C)(C(=O)O)[C@@H]5CC[C@]43C)[C@@H]2C1 [α-Boswelliasäure] | 5 µM
